Results from patent US6994671B2, “Apparatus and method for screening, olfactory mucosa stimulating compound found by the screening method, and therapeutic apparatus and electrode section for measurement” (Matsushita Electric Industrial Co., Ltd., priority 2000, dated 2006).

Legend:
olfactory mucosa = experiment: Electrical signal in the olfactory bulb on spraying the compound toward the olfactory mucosa, measured with implanted micro electrodes; type: in vivo; conditions: rat, sprayed with air for 5 minutes; FIG. 5 (a) vs (b)
Source text: A two-week-old rat was used as a test animal. The measuring electrode portion 10 shown in FIG. 4 was implanted into the rat by a surgical operation. In the measuring electrode portion 10, the length of the micro electrode 16a was 100 μm, and the interval between adjacent micro electrodes 16a in each electrode column 17 was 500 μm. Platinum was used as a conductive material for the needle-shaped conductive lead 16. Polyimide was used as the insulative film. […] In order to attach the measuring electrode portion 10 to the rat, Nembutal (barbiturate) was injected into the abdominal cavity of the rat in a quantity equal to […], so as to anesthetize the rat, and the anesthetized rat was fixed in the prone position. […] The response induced in the olfactory bulb of the rat was recorded in the form of an electrical signal from each micro electrode 16a of the measuring electrode portion 10. […] At the same time, the blood pressure and the heart rate of the rat were measured when cineole was sprayed on the rat. […] After the olfactory bulb of the rat had stabilized, cineole was sprayed into the test animal fixing device 32 together with air at an oxygen concentration 5% higher than normal air, and a response of the olfactory bulb of the rat obtained at that time was recorded in the form of an electrical signal from each micro electrode 16a of the measuring electrode portion 10.

rat = experiment: Blood pressure and heart rate of the rat while the compound is sprayed; type: in vivo
Source text: The test animal fixing device 32 has a means for measuring physiological responses induced in an organism, such as the blood pressure, the heart rate, etc., of the test animal fixed therein. Measurement results obtained by the measuring means are supplied to the processing apparatus 36. Further, measurement results of the blood pressure, the heart rate, and the like, of the rat fixed in the test animal fixing device 32, which are obtained when the air containing the olfactory mucosa stimulating compound is sprayed from the atomizing nozzle 33, are supplied to the processing apparatus 36. The processing apparatus 36 determines the efficacy of the olfactory mucosa stimulating compound sprayed on the rat, based on the analyzed electrical signal pattern in the olfactory bulb and the measurement results of the blood pressure, the heart rate, and the like, of the rat. For example, if a decrease in the blood pressure of the rat is detected as a result of a stimulation of the olfactory mucosa by an olfactory mucosa stimulating compound, it is determined that the olfactory mucosa stimulating compound suppresses brain cells so as to induce a physiological response that lowers the blood pressure. Accordingly, the olfactory mucosa stimulating compound is identified as a compound effective in lowering the blood pressure. In this case, the electrical signal pattern obtained by the measuring electrode portion 10 is stored as data in the processing apparatus 36. After such an implantation operation of the measuring electrode portion 10, the rat was reared for three weeks under an environment which was cleaned with activated carbon so as to remove substances that produce aromas. Then, three weeks after the surgical operation, the rat was fixed in the test animal fixing device 32 of the screening apparatus 1 shown in FIG. 1. The terminal line 38, which extended from the body of the rat, was connected to the signal amplitude stimulating apparatus 34 outside the test animal fixing device 32. […] The response induced in the olfactory bulb of the rat was recorded in the form of an electrical signal from each micro electrode 16a of the measuring electrode portion 10. […] At the same time, the blood pressure and the heart rate of the rat were measured when cineole was sprayed on the rat. […] After the olfactory bulb of the rat had stabilized, cineole was sprayed into the test animal fixing device 32 together with air at an oxygen concentration 5% higher than normal air, and a response of the olfactory bulb of the rat obtained at that time was recorded in the form of an electrical signal from each micro electrode 16a of the measuring electrode portion 10.

[1] = cineole sprayed with air, FIG. 6
[2] = result stated for normal oxygen concentration

SMILES: CC12CCC(CC1)C(C)(C)O2 [cineole]
- stimulation of the olfactory mucosa (electrical signals of the olfactory bulb, 16 micro electrodes) (olfactory mucosa): stimulated the olfactory mucosa
- blood pressure (rat; [1]): increases in the blood pressure
- heart rate (rat; [1]): increases
- blood pressure, air at normal oxygen concentration versus air at oxygen concentration 5% higher than normal air (rat; [2]): increased more greatly
- heart rate, air at normal oxygen concentration versus air at oxygen concentration 5% higher than normal air (rat; [2]): increased more greatly
